In patent US20130261024A1, “System for Identifying Connections Between Perturbagens and Genes Associated with a Skin Hyperpigmentation Condition” (THE PROCTER & GAMBLE COMPANY, priority 2012, published 2013):

Experiments:
[1] = test system: tert-Keratinocyte (tKC) cells; test: C-map query with the composite "skin tone" benchmark signature (Niacinamide, Sepiwhite, NAG, Hexamidine); type: cell-based, human; conditions: composite signature of Example 3
Protocol: (§1) Individual experiments (referred to as batches) generally comprise 30 to 96 samples analyzed using Affymetrix GeneChip® technology platforms, containing 6 replicates of the vehicle control (e.g., DSMO), 2 replicate samples of a positive control that gives a strong reproducible effect in the cell type used, and samples of the test material/perturbagen. Replication of the test material is done in separate batches due to batch effects. In vitro testing was performed in 6-well plates to provide sufficient RNA for GeneChip® analysis (2-4 μg total RNA yield/well).
Human telomerized keratinocytes (tKC) were obtained from the University of Texas, Southwestern Medical Center, Dallas, Tex. tKC cells were grown in EpiLife® media with 1× Human Keratinocyte Growth Supplement (Invitrogen, Carlsbad, Calif.) on collagen I coated cell culture flasks and plates (Becton Dickinson, Franklin Lakes, N.J.). Keratinocytes were seeded into 6-well plates at 20,000 cells/cm^2 24 hours before chemical exposure. Human skin fibroblasts (BJ cell line from ATCC, Manassas, Va.) were grown in Eagle's Minimal Essential Medium (ATCC) supplemented with 10% fetal bovine serum (HyClone, Logan, Utah) in normal cell culture flasks and plates (Corning, Lowell, Mass.). BJ fibroblasts were seeded into 6-well plates at 12,000 cells/cm^2 24 hours before chemical exposure. […]

hyperpigmented spots = test: 9-week randomized, double-blind, vehicle-controlled, split-face tone benefit clinical study; type: in vivo, Chinese females; conditions: 0.05% in SC-99 vehicle
Excerpt: This Example provides evidence of the advantages of using composite signatures and illustrates clinical affirmation of the C-map model for predicting efficacy of skin-lightening agents. This Example supports embodiments related to composite signatures (as described at the end of Example 3). An illustrative “Skin Tone” Signature developed from a genomics study using a composite skin-lightening benchmark agent signature is derived from Niacinamide, Hexamidine, Sepiwhite, and NAG. The signature is used to query C-map and generate a list of potential skin-lightening agents. A top hit, Chlorhexidine Diactate (CD) is entered into clinical testing for confirmation of efficacy. The control for clinical efficacy is a 5% Niacinamide+1% Sepiwhite formulation in the control vehicle.
Primary endpoints are changes in color spot area fraction (image analysis) and melanin spot area fraction (NC2) from baseline. Secondary endpoints are changes from baseline in L*a*b (color image analysis), mean melanin gray scale (NC2), and melanin evenness (NC2). Texture area fraction and pore area fraction are also evaluated to explore impact on other aspects relating to overall skin tone. […] Statistically significant superiority to the high efficacy benchmark skin active agent to vehicle performance is the clinical success criteria.
Study Design: The experimental protocol included a 9-week (1-week preconditioning & 8-week treatment), randomized, double-blind, round robin, vehicle-controlled, split-face tone benefit study. The subject population included 330 Chinese females, 25-55 years old with hyperpigmented spots. 318 subjects completed the entire study. […] Olay Complete SPF 15 UV Moisturizing Lotion is concomitantly used during pre-conditioning and treatment. 0.5 g each test product per half-face (forehead to jaw line; ˜4 mg/cm^2) is dosed 2× a day (morning/evening). Color SAF and treatment area, Melanin SAF, gray scale, evenness by NC2, and additional measurement of Fine Lines and Wrinkle and Texture are by REAL 3.01A. Data collection points include baseline, and ends of weeks 4, 6 and 8. The tested hypothesis is that there is no difference in clinical endpoint versus the benchmark composition treatment. Study site is Kuntai Clinical Center, Beijing, China and study time frame is February 2010 (pre-conditioning) to April 2010.

[2] = test system: teleomerized human keratinocytes (tKC); test: C-map query with the Retinoic Acid/Keratinocyte 200 benchmark signature; type: cell-based; conditions: Retinoic Acid Keratinocyte RA-200 signature
Protocol: as §1
Human telomerized keratinocytes (tKC) were obtained from the University of Texas, Southwestern Medical Center, Dallas, Tex. tKC cells were grown in EpiLife® media with 1× Human Keratinocyte Growth Supplement (Invitrogen, Carlsbad, Calif.) on collagen I coated cell culture flasks and plates (Becton Dickinson, Franklin Lakes, N.J.). Keratinocytes were seeded into 6-well plates at 20,000 cells/cm^2 24 hours before chemical exposure. […]
(a) Tert-keratinocytes (tKC) RA Signatures. […] Cells were treated with 1 uM tRA for 6 hr, tested in triplicate, with triplicate DMSO controls, and analyzed on HG-U133A GeneChips. […]

Structure (SMILES) | connectivity to tone composite benchmark signature query [1] | Pore area fraction (hyperpigmented spots; compared to vehicle, week 8) | Texture area fraction (hyperpigmented spots; compared to vehicle, week 8) | spot area fraction color test (hyperpigmented spots; compared to vehicle, week 8) | spot area fraction NC2 test (hyperpigmented spots; compared to vehicle, weeks 6 and 8) | Basal skin tone (hyperpigmented spots; versus vehicle, week 8) | NC2 Melanin evenness test (hyperpigmented spots; versus vehicle, weeks 6 and 8) | average C-map score [2]
CC(=O)O.CC(=O)O.NC(=N\CCCCCC/N=C(N)/N=C(\N)Nc1ccc(Cl)cc1)/N=C(\N)Nc1ccc(Cl)cc1 [CD, Chlorhexidine Diacetate] | top connectivity hit | superior efficacy | superior efficacy | significantly fewer spots | significantly reduced fraction | superiority | superiority to the vehicle | –
CC1=C(/C=C/C(C)=C/C=C/C(C)=C/C(=O)O)C(C)(C)CCC1 [Retinoic acid, all-trans-retinoic acid] | – | – | – | – | – | – | – | highest score of the materials tested
